Test results reported in patent publication US20110318302A1, “Cancer Treatment” (priority 2009, published 2011).

Tested on: human renal cancer cell line Caki-1
Experiment: Caki-1 tumour mouse model, single and combination therapy (tumour volume)
Format: in vivo, BALB/c nude mice
Details: single agent; s.c. Caki-1 tumours; F8-IL2 20 μg i.v. 3x every 3rd day; sorafenib or sunitinib 60 mg/kg p.o. 7 days; huIFNa2b/muIFNa1 10.000 IU/10.000 IU s.c. 3x; two treatment cycles (days 11-17, 37-43)
Procedure: For the combination therapy, the human renal cancer cell line Caki-1 (clear cell carcinoma from kidney; ATCC) was cultured in DMEM containing 10% fetal bovine serum and 2 mM L-glutamine (all Invitrogen).
Female BALE/c nude mice were obtained from Charles River Laboratories. All experiments were performed according to Swiss regulations and under a project license granted by the Veterinäramt des Kantons Zürich.
Sorafenib tosylate (Nexavar, Bayer Schering) and sunitinib malate (Sutent, Pfizer) were obtained in the commercially available forms of 200 mg tablets and 50 mg capsules, respectively. The total tablet weight of sorafenib is 350 mg and an index of 1.75 was used to keep the molarity in terms of active compound. Sorafenib tablets were pulverized with mortar and pestle and kept from light in a desiccator. For in vivo administration, pulverized sorafenib was dissolved in a solution of CremophorEL:Ethanol:H2O (12.5%:12.5%:75%). The content of a sunitinib malate capsule was 167 mg and a correction factor of 3.3 was used for molarity adjustment. […]
Mice were monitored daily and tumor volumes were measured three times per week with a digital caliper using the following formula: volume=length×width^2×0.5. […] Tumor volumes are expressed as mean±SE (standard error). […]

SMILES: CNC(=O)c1cc(Oc2ccc(NC(=O)Nc3ccc(Cl)c(C(F)(F)F)c3)cc2)ccn1 [Sorafenib]
- tumour burden (tumour volume) versus PBS control: little or no effect on tumour burden
